Values quoted from earlier work, collected in patent US9510613B2, “Panaxadiol-containing composition” (LION CORPORATION, priority 2011, dated 2016).

Details: commercial component, Table 3

Substance	HLB
Glycerin Monostearate Citrate	9.5
Sucrose Lauric Acid Ester	16
Sucrose Myristic Acid Ester	16
Sucrose Palmitic Acid Ester	16
Sucrose Stearic Acid Ester	16
